Source: paper PMC7993375, “Discovery of novel quinoline-based analogues of combretastatin A-4 as tubulin polymerisation inhibitors with apoptosis inducing activity and potent anticancer effect” (Journal of Enzyme Inhibition and Medicinal Chemistry, 2021)
Where two headings read alike, the source gives them in different places.

Legend:
[1] = test system: MCF-10A; assay: MTT cell viability assay, normal epithelial breast MCF-10A cells; format: cell-based; conditions: Homo sapiens, 72 h
Protocol: The quinoline compounds were evaluated for antiproliferative effect using the MTT viability assay of four cancer cell lines (MCF-7, HCT-116, HL-60 and HeLa) and normal breast cells MCF-10A to calculate the relative IC50 values for each compound. Cells were seeded in triplicate in 96-well plates at a density of 10 × 10^3 cells/ml in a total volume of 200 µl per well. 0.1% of DMSO was used as a vehicle control. Following, the cells were treated with 2 µl test compound (from stock solutions in ethanol) to furnish the concentration range of study, 1 nM to 50 µM, and re-incubated for a further 72 h. The culture medium was then removed, and the cells washed with 100 µL phosphate buffered saline (PBS) and 50 µL MTT added, to reach a final concentration of 1 mg/mL. Cells were incubated for 2 h in darkness at 37 °C. Solubilisation was begun through the addition of […] DMSO, and the cells maintained at room temperature in darkness for 20 min to ensure thorough colour diffusion before reading the absorbance. Plates were incubated for 72 h at 37 °C + 5% CO2. The MTT (5 mg/mL in PBS) was added and incubated for another 4 h, and the optical density was detected with a microplate reader at 570 nm. Results were expressed as percentage viability relative to vehicle control (100%). […]

[2] = test system: MCF-7 cells; assay: Annexin V/PI apoptotic assay; format: cell-based, human; conditions: for percentage of Annexin V-staining positive cells: 48 h, untreated 1%; for percentage of early and late apoptotic cells: 72 h, untreated 2%
Protocol: Apoptotic cell death was detected by flow cytometry using Annexin V and propidium iodide (PI). […] Cells were then harvested and prepared for flow cytometric analysis. Cells were washed in 1X binding buffer (20X binding buffer: 0.1 M HEPES, pH 7.4; 1.4 M NaCl; 25 mM CaCl2 diluted in dH2O) and incubated in the dark for 30 min on ice in Annexin V-containing binding buffer [1:100]. Cells were then washed once in binding buffer and then re-suspended in PI-containing binding buffer [1:1000]. Samples were analysed immediately using the BD accuri flow cytometer and prism software for analysis the data. Four populations are produced during the assay Annexin V and PI negative (Q4, healthy cells), Annexin V positive and PI negative (Q3, early apoptosis), Annexin V and PI positive (Q2, late apoptosis) and Annexin V negative and PI positive (Q1, necrosis).

[3] = test system: HeLa; assay: MTT cell viability assay, HeLa cervical adenocarcinoma cells; format: cell-based; conditions: Homo sapiens, 72 h
Protocol: (§1) The four human tumour cell lines MCF-7, HCT-116, HL-60 and HeLa used in this study were obtained from the VACSERA (Giza, Egypt) cell culture unit that were originally acquired from ATCC (Manassas, VA, USA). All the human tumour cell lines were cultured in Dulbecco’s Modified Eagle’s Medium (DMEM) with 10% foetal bovine serum, 2 mM L-glutamine and 100 µg/mL penicillin/streptomycin. Cells were maintained at 37 °C in 5% CO2 in a humidified incubator. All cells were sub-cultured 3 times/week by trypsinisation using TrypLE Express (1X).
(§2) The quinoline compounds were evaluated for antiproliferative effect using the MTT viability assay of four cancer cell lines (MCF-7, HCT-116, HL-60 and HeLa) and normal breast cells MCF-10A to calculate the relative IC50 values for each compound. Cells were seeded in triplicate in 96-well plates at a density of 10 × 10^3 cells/ml in a total volume of 200 µl per well. 0.1% of DMSO was used as a vehicle control. Following, the cells were treated with 2 µl test compound (from stock solutions in ethanol) to furnish the concentration range of study, 1 nM to 50 µM, and re-incubated for a further 72 h. The culture medium was then removed, and the cells washed with 100 µL phosphate buffered saline (PBS) and 50 µL MTT added, to reach a final concentration of 1 mg/mL. Cells were incubated for 2 h in darkness at 37 °C. Solubilisation was begun through the addition of […] DMSO, and the cells maintained at room temperature in darkness for 20 min to ensure thorough colour diffusion before reading the absorbance. Plates were incubated for 72 h at 37 °C + 5% CO2. The MTT (5 mg/mL in PBS) was added and incubated for another 4 h, and the optical density was detected with a microplate reader at 570 nm. Results were expressed as percentage viability relative to vehicle control (100%). Dose response curves were plotted and IC50 values (concentration of drug resulting in 50% reduction in cell survival) were obtained using the commercial software package Prism (GraphPad Software, Inc., La Jolla, CA, USA). All the experiments were repeated in at least three independent experiments.

[4] = test system: HCT-116; assay: MTT cell viability assay, HCT-116 colorectal carcinoma cells; format: cell-based; conditions: Homo sapiens, 72 h
Protocol: as §1, §2

[5] = test system: MCF-7; assay: MTT cell viability assay, MCF-7 breast adenocarcinoma cells; format: cell-based; conditions: Homo sapiens
Protocol: as §1, §2

[6] = test system: HL-60; assay: MTT cell viability assay, HL-60 leukaemia cells; format: cell-based; conditions: Homo sapiens
Protocol: as §1, §2

[7] = test system: MCF-7, HL-60, HCT-116 and HeLa; assay: MTT cell viability assay, statements over all four cancer cell lines; format: cell-based, human; conditions: Homo sapiens
Protocol: as §1, §2

[8] = test system: pro-apoptotic protein Bax; assay: Bax ELISA, expression level in MCF-7 cells; format: cell-based, human; conditions: MCF-7, 250 nM, 48 h
Protocol: (§3) The level of the anti-apoptotic marker and apoptotic marker BAX were assessed using Bcl-2 Elisa kit and human Bax ELISA Kit purchased from Zymed laboratories, invitrogen and Cloud-Clone Crop. (Katy, TX, USA), respectively, following the manufacturer’s instructions. Briefly, Treated MCF-7 cell lysate with 250 nM of compound 12c were prepared, and equal amount of cell lysates were loaded and propped with specific antibodies. The samples were measured and analysed at 450 nm in ROBONEK P2000 ELISA reader. In Vitro Caspase-9 Activation Assay was performed using human active caspase-9 Invitrogen EIA kit according to the manufacturer’s instructions. Compound 12c at concentrations of 50 and 250 nM and CA-4 (50 nM) were prepared in dH2O up to a final volume of 50 µL/well followed by addition of 5 µL of active caspase-9. Following, the cells were mixed and 50 µL of the Master Mix was added to each well and allowed to react at 37 °C for 1 h. The fluorescence intensity of the test samples was recorded and analysed in a fluorescence plate reader at 400 nm excitation and 505 nm emissions. All experiments were conducted in triplicates.

[9] = test system: MCF-7 cells; assay: Mitochondrial membrane potential (DiOC2(3), annexin V, flow cytometry); format: cell-based, human; conditions: 24 h, untreated 1.1%
Protocol: Mitochondrial membrane potential (Δψmt) was measured by flow cytometry with DiOC2(3) staining and additional labelling with an annexin V conjugate. After treatment with compound 12c (50 and 250 nM) and CA-4 (50 nM), cells were stained with DiOC2(3) dye for 30 min in the incubator, then harvested and washed with PBS. DiOC2(3)-stained cells were resuspended with 1X annexin binding buffer, followed by addition of annexin V conjugate and incubated at 37 °C for 15 min. The data from the flow cytometry were analysed by Cell Quest software. Production of intracellular reactive oxygen species (ROS) was measured using 2,7–dichlorofluorescin diacetate (H2-DCFDA) dye. MCF-7 cells were seeded and treated either with vehicle (0.1% DMSO) or with compound 12c (50 and 250 nM) or CA-4 (50 nM) for 6, 12 and 24 h. H2O2 was used as a positive control. The amount of ROS generated was estimated after 2 h of selected compound treatment. The cells were collected by centrifugation and washed twice with PBS. Cells were then incubated with DCFDA dye (25 µM) in dark at 37 °C for 1 h. Fluorescence spectra (510 − 600 nm) were monitored using an excitation wavelength of 488 nm[53]^,[54].

[10] = test system: MCF-7 cells; assay: Wound healing assay; format: cell-based, human
Protocol: MCF-7 were grown in 6-well plates for 24 h, and scratches were made using pipette tip and washed with PBS to remove non-adherent cell debris. Subsequently, the cells were treated with different concentrations of 12c for 24 h. The migrations across the wound area were photographed under a phase contrast microscopy.

[11] = test system: anti-apoptotic protein Bcl-2; assay: Bcl-2 ELISA, expression level in MCF-7 cells; format: cell-based, human; conditions: MCF-7, 250 nM, 48 h
Protocol: as §3

[12] = MCF7, 72 h, read-out: IC50 value, MCF-7
[13] = 72 h, read-out: IC50 value, HL-60

IC50 [7] [µM] | IC50 ([5]; MCF7, read-out: IC50, MCF-7) [µM] | IC50 ([6]; read-out: IC50, HL-60) [µM] | Structure (SMILES) | IC50 [1] [µM] | percentage of Annexin V-staining positive cells ([2]; 50 nM) [%] | IC50 [3] [µM] | IC50 [4] [µM] | IC50 [5, 12] [µM] | IC50 [6, 13] [µM] | percentage of Annexin V-staining positive cells ([2]; 250 nM) [%] | percentage of Annexin V-staining positive cells ([2]; concentration printed as 0 nM) [%] | percentage of early and late apoptotic cells ([2]; concentration printed as 1 µM) [%] | percentage of early and late apoptotic cells ([2]; concentration printed as 5 µM) [%] | expression of the pro-apoptotic protein Bax [8] | percentage of apoptotic cells with decrease in MMP ([9]; 50 nM) [%] | percentage of apoptotic cells with decrease in MMP ([9]; 250 nM) [%] | MCF-7 cell migration into wound area [10] | expression level of the anti-apoptotic protein Bcl-2 [11]
– | – | – | COc1ccc(/C=C\c2cc(OC)c(OC)c(OC)c2)cc1O [CA-4, Combretastatin A-4] | 6.1 | 29 | 0.064 ± 0.004 | 0.026 ± 0.001 | 0.019 ± 0.004 | 0.076 ± 0.004 | – | – | – | – | – | – | – | – | –
0.01 to 0.042 | 0.019 | 0.01 | COc1cc(C2=NC(=Cc3cc4ccc(C)cc4nc3OC)C(=O)O2)cc(OC)c1OC [Compound 12c, 4-[(2-Methoxy-7-methylquinolin-3-yl)methylene]-2–(3,4,5-trimethoxyphenyl) oxazol-5(4H)-one] | > 50 | – | 0.042 ± 0.001 | 0.022 ± 0.001 | 0.01 ± 0.003 | 0.019 | 21 | 15 | 17.6 | 29.3 | up-regulated | 24.9 | 31.3 | significantly inhibited in a dose-dependent manner | decreased
